# Assay results as given in PMC7311426, “An amphipathic peptide with antibiotic activity against multidrug-resistant Gram-negative bacteria” (Nature Communications, 2020).
# Read-outs that look alike come from different tables or passages of the source. Residues, ends and D or L forms follow the SMILES beside them.
# How the values were obtained:
# Experiment in all cases: microbe, parasite or virus in culture
# [1] = test system: E. coli clinical isolates
# In short: (§1)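 MIC90 from CLSI broth microdilution (M07-A9) in two clinical-isolate panels. US panel (331 isolates, 2010-2012): AA139 diluted in 0.01% acetic acid/0.1% BSA. Worldwide panel (445 isolates, 2011-2013, four regions): CAMHB, with 0.002% Tween 80 added for AA139 and polymyxin B.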
# [2] = test system: K. pneumoniae clinical isolates
# In short: as §1
# [3] = test system: P. aeruginosa clinical isolates
# In short: as §1
# K. pneumoniae = type: cell-based, Klebsiella pneumoniae; conditions: for MIC: Klebsiella pneumoniae
# L. monocytogenes = conditions: for MIC: Listeria monocytogenes, ATCC19112, read-out: BMD MIC
# In short: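 Broth microdilution in MHB, 2-fold 12-point series from 128 or 64 down to 0.06 or 0.03 μg mL^−1, 5 × 10^5 CFU mL^−1. Extra runs in CAMHB per CLSI and in MHB with 1% agarose; n ≥ 6.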
# [4] = K. pneumoniae ATCC 700603, ESBL, OXA-2/SHV-18, BMD with 5% Survanta lung surfactant, mode, or median where no mode, n=4 to 6, where n=2 differs the higher value
# [5] = K. pneumoniae ATCC 700603, ESBL, OXA-2/SHV-18, BMD with 5% Survanta lung surfactant, replicate 1
# [6] = K. pneumoniae ATCC 700603, ESBL, OXA-2/SHV-18, BMD with 5% Survanta lung surfactant, replicate 2
# [7] = K. pneumoniae ATCC 700603, ESBL, OXA-2/SHV-18, BMD with 50% human serum, mode, or median where no mode, n=4 to 6, where n=2 differs the higher value
# [8] = K. pneumoniae ATCC 700603, ESBL, OXA-2/SHV-18, BMD with 50% human serum, replicate 1
# [9] = K. pneumoniae ATCC 700603, ESBL, OXA-2/SHV-18, BMD with 50% human serum, replicate 2
# [10] = K. pneumoniae BAA-2146, NDM-1, BMD with 5% Survanta lung surfactant, mode, or median where no mode, n=4 to 6, where n=2 differs the higher value
# [11] = K. pneumoniae BAA-2146, NDM-1, BMD with 5% Survanta lung surfactant, replicate 1
# [12] = K. pneumoniae BAA-2146, NDM-1, BMD with 5% Survanta lung surfactant, replicate 2
# [13] = K. pneumoniae BAA-2146, NDM-1, BMD with 5% Survanta lung surfactant, replicate 3
# [14] = K. pneumoniae BAA-2146, NDM-1, BMD with 5% Survanta lung surfactant, replicate 4
# [15] = ATCC13883, read-out: MIC, Serum (50%)
# [16] = ATCC700603, read-out: MIC, Serum (50%)
# [17] = ATCC700603, read-out: MIC, Survanta (5%)
# [18] = BAA2146, read-out: MIC, Survanta (5%)
# [19] = Escherichia coli, US isolates 2010–2012, E. coli MDR, n = 31
# [20] = Escherichia coli, US isolates 2010–2012, E. coli Non-MDR, n = 24
# [21] = Worldwide isolates 2011-2013, E. coli n = 112
# [22] = Klebsiella pneumoniae, US isolates 2010–2012, K. pneumoniae Non-MDR, n = 24
# [23] = Klebsiella pneumoniae, US isolates 2010–2012, K. pneumoniae XDR, n = 55
# [24] = Worldwide isolates 2011-2013, K. pneumoniae n = 114
# [25] = Pseudomonas aeruginosa, US isolates 2010–2012, P. aeruginosa Non-MDR, n = 41
# [26] = Pseudomonas aeruginosa, US isolates 2010–2012, P. aeruginosa XDR, n = 37
# [27] = Worldwide isolates 2011-2013, P. aeruginosa n = 111
smiles,measurement,setting,value
"CC(C)[C@@H]1NC(=O)[C@H](Cc2ccc(O)cc2)NC(=O)[C@H](Cc2c[nH]c3ccccc23)NC(=O)[C@@H](NC(=O)[C@H](Cc2ccccc2)NC(=O)CN)CSSC[C@@H](C(=O)N[C@@H](CC(N)=O)C(=O)O)NC(=O)[C@H](CCCNC(=N)N)NC(=O)[C@H](CCCNC(=N)N)NC(=O)[C@H](Cc2ccc(O)cc2)NC(=O)[C@@H]2CSSC[C@H](NC1=O)C(=O)N[C@@H](C)C(=O)N[C@@H](CCCNC(=N)N)C(=O)N[C@@H](CCCNC(=N)N)C(=O)N[C@@H](CC(N)=O)C(=O)NCC(=O)N[C@@H](C)C(=O)N[C@@H](CCCNC(=N)N)C(=O)N[C@@H](C(C)C)C(=O)N2 [AA139] (HELM PEPTIDE1{G.F.C.W.Y.V.C.A.R.R.N.G.A.R.V.C.Y.R.R.C.N}$PEPTIDE1,PEPTIDE1,3:R3-20:R3|PEPTIDE1,PEPTIDE1,7:R3-16:R3$$$V2.0)",MIC against colistin-resistant isolates (did not surpass),"[1]; E. coli with a colistin MIC of 4 to 16 μg mL^−1, US panel",≤ 0.5 µg/mL
same,MIC90,"[1]; US isolates 2010–2012, E. coli MDR, n = 31",0.5 µg/mL
same,MIC90,"[1]; Worldwide isolates 2011–2013, E. coli incl. non-MDR, MDR, XDR, n = 112",0.5 µg/mL
same,MIC90 (E. coli),[1]; clinical isolates,1.0 µg/mL
same,MIC90,"[2]; US isolates 2010–2012, K. pneumoniae Non-MDR, n = 24",4 µg/mL
same,MIC90,"[2]; Worldwide isolates 2011–2013, K. pneumoniae incl. non-MDR, MDR, XDR, n = 114",4 µg/mL
same,MIC against colistin-resistant isolates (did not surpass),"[2]; all but two K. pneumoniae isolates with a colistin MIC of 8–≥32 μg mL^−1, US panel",≤ 4 µg/mL
same,MIC against colistin-resistant isolates (did not surpass),"[3]; P. aeruginosa with a colistin MIC of >32 μg mL^−1, US panel",≤ 8 µg/mL
same,MIC90,"[3]; US isolates 2010–2012, P. aeruginosa Non-MDR, n = 41",8 µg/mL
same,MIC90,"[3]; US isolates 2010–2012, P. aeruginosa XDR, n = 37",4 µg/mL
same,MIC90,"[3]; Worldwide isolates 2011–2013, P. aeruginosa incl. non-MDR, MDR, XDR, n = 111",8 µg/mL
same,MIC90 (P. aeruginosa),[3]; clinical isolates,8.0 µg/mL
same,"MIC, Serum (50%)","K. pneumoniae; K. pneumoniae ATCC 700603 ESBL, OXA-2/SHV-18, n=2 to 6, mode or median",8 µg/mL
same,"MIC, Survanta (5%)","K. pneumoniae; K. pneumoniae BAA-2146 NDM-1, n=2 to 6, mode or median",2 µg/mL
same,BMD MIC,L. monocytogenes,2 µg/mL
"O=C(O)c1cn(C2CC2)c2cc(N3CCNCC3)c(F)cc2c1=O [Ciprofloxacin, ciprofloxacin]","MIC, Survanta (5%) replicates","K. pneumoniae; K. pneumoniae ATCC 13883, type strain, BMD with 5% Survanta lung surfactant, replicate 1",0.5
same,"MIC, Survanta (5%) replicates","K. pneumoniae; K. pneumoniae ATCC 13883, type strain, BMD with 5% Survanta lung surfactant, replicate 2",0.5
same,"MIC, Survanta (5%) replicates","K. pneumoniae; K. pneumoniae ATCC 13883, type strain, BMD with 5% Survanta lung surfactant, replicate 3",0.125
same,"MIC, Survanta (5%) replicates","K. pneumoniae; K. pneumoniae ATCC 13883, type strain, BMD with 5% Survanta lung surfactant, replicate 4",0.125
same,"MIC, Serum (50%) replicates","K. pneumoniae; K. pneumoniae ATCC 13883, type strain, BMD with 50% human serum, replicate 1",≤0.03
same,"MIC, Serum (50%) replicates","K. pneumoniae; K. pneumoniae ATCC 13883, type strain, BMD with 50% human serum, replicate 2",≤0.03
same,"MIC, Serum (50%)","K. pneumoniae; K. pneumoniae ATCC 13883, type strain, BMD with 50% human serum, where n=2 differs the higher value is recorded",≤0.03
same,"MIC, Survanta (5%)",K. pneumoniae; [4],1
same,"MIC, Survanta (5%) replicates",K. pneumoniae; [5],2
same,"MIC, Survanta (5%) replicates",K. pneumoniae; [6],2
same,"MIC, Survanta (5%) replicates","K. pneumoniae; K. pneumoniae ATCC 700603, ESBL, OXA-2/SHV-18, BMD with 5% Survanta lung surfactant, replicate 3",0.5
same,"MIC, Survanta (5%) replicates","K. pneumoniae; K. pneumoniae ATCC 700603, ESBL, OXA-2/SHV-18, BMD with 5% Survanta lung surfactant, replicate 4",1
same,"MIC, Serum (50%)",K. pneumoniae; [7],0.125
same,"MIC, Serum (50%) replicates",K. pneumoniae; [8],0.125
same,"MIC, Serum (50%) replicates",K. pneumoniae; [9],0.06
same,"MIC, Survanta (5%)",K. pneumoniae; [10],>64
same,"MIC, Survanta (5%) replicates",K. pneumoniae; [11],>64
same,"MIC, Survanta (5%) replicates",K. pneumoniae; [12],>64
same,"MIC, Survanta (5%) replicates",K. pneumoniae; [13],>64
same,"MIC, Survanta (5%) replicates",K. pneumoniae; [14],>64
same,MIC,K. pneumoniae; [15],≤ 0.03 µg/mL
same,MIC,K. pneumoniae; [16],0.125 µg/mL
same,MIC,K. pneumoniae; [17],1 µg/mL
same,MIC,K. pneumoniae; [18],> 64 µg/mL
"CNC(C)C1CCC(N)C(OC2C(N)CC(N)C(OC3OCC(C)(O)C(NC)C3O)C2O)O1 (stereo not drawn) [Gentamicin, gentamicin, reference compound]",MIC90,[1]; Escherichia coli,32 µg/mL
same,MIC90,[1]; [19],> 32 µg/mL
same,MIC90,[1]; [20],8 µg/mL
same,MIC50,[1]; [21],0.5 µg/mL
same,MIC90,[1]; [21],32 µg/mL
same,MIC90,[2]; [22],8 µg/mL
same,MIC90,[2]; [23],> 32 µg/mL
same,MIC50,[2]; [24],0.5 µg/mL
same,MIC90,[2]; [24],> 32 µg/mL
same,MIC90,[3]; [25],> 32 µg/mL
same,MIC90,[3]; [26],> 32 µg/mL
same,MIC50,[3]; [27],2 µg/mL
same,MIC90,[3]; [27],> 32 µg/mL
same,MIC,L. monocytogenes,0.125 µg/mL
"C[C@H]1COc2c(N3CCN(C)CC3)c(F)cc3c(=O)c(C(=O)O)cn1c23 [LEV, levofloxacin, reference compound]",MIC90,[1]; Escherichia coli,16 µg/mL
same,MIC50,[1]; [21],0.06 µg/mL
same,MIC90,[1]; [21],16 µg/mL
same,MIC90,[2]; Klebsiella pneumoniae,> 32 µg/mL
same,MIC50,[2]; [24],0.25 µg/mL
same,MIC90,[2]; [24],> 32 µg/mL
same,MIC90,[3]; Pseudomonas aeruginosa,> 32 µg/mL
same,MIC90,[3]; [27],> 32 µg/mL
"C[C@@H](O)[C@H]1C(=O)N2C(C(=O)O)=C(S[C@@H]3CN[C@H](C(=O)N(C)C)C3)[C@H](C)[C@H]12 [Meropenem, meropenem, reference compound]",MIC90,[1]; [19],16 µg/mL
same,MIC90,[1]; [20],0.03 µg/mL
same,MIC50,[1]; [21],≤ 0.015 µg/mL
same,MIC90,[1]; [21],0.03 µg/mL
same,MIC90,[2]; [22],0.06 µg/mL
same,MIC90,[2]; [23],> 16 µg/mL
same,MIC50,[2]; [24],0.03 µg/mL
same,MIC90,[2]; [24],> 16 µg/mL
same,MIC90,[3]; [25],16 µg/mL
same,MIC90,[3]; [26],> 16 µg/mL
same,MIC50,[3]; [27],1 µg/mL
same,MIC90,[3]; [27],> 16 µg/mL
same,MIC,L. monocytogenes,0.5 µg/mL
COc1cc(Cc2cnc(N)nc2N)cc(OC)c1OC [Trimethoprim],"MIC, Serum (50%)",K. pneumoniae,0.5
same,"MIC, Serum (50%) replicates",K. pneumoniae,0.5
same,"MIC, Survanta (5%)",K. pneumoniae,1
same,"MIC, Survanta (5%)",K. pneumoniae; [4],4
same,"MIC, Survanta (5%) replicates",K. pneumoniae; [5],4
same,"MIC, Survanta (5%) replicates",K. pneumoniae; [6],2
same,"MIC, Serum (50%)",K. pneumoniae; [7],32
same,"MIC, Serum (50%) replicates",K. pneumoniae; [8],32
same,"MIC, Serum (50%) replicates",K. pneumoniae; [9],16
same,"MIC, Survanta (5%)",K. pneumoniae; [10],>64
same,"MIC, Survanta (5%) replicates",K. pneumoniae; [11],>64
same,"MIC, Survanta (5%) replicates",K. pneumoniae; [12],>64
same,"MIC, Survanta (5%) replicates",K. pneumoniae; [13],>64
same,"MIC, Survanta (5%) replicates",K. pneumoniae; [14],>64
same,MIC,K. pneumoniae; [15],0.5 µg/mL
same,MIC,"K. pneumoniae; ATCC13883, read-out: MIC, Survanta (5%)",1 µg/mL
same,MIC,K. pneumoniae; [16],32 µg/mL
same,MIC,K. pneumoniae; [17],4 µg/mL
same,MIC,K. pneumoniae; [18],> 64 µg/mL
